# Where “and” joins values, the source holds several entries; their conditions need not be identical. Identical values can stand only once. Like-named read-outs stand apart in the source and are kept apart here.
# What was measured:
# [1] = target: T1, Arabidopsis thaliana AOX1A (rAtAOX1A) (Arabidopsis thaliana, UniProt Q39219); assay: biochemical; conditions: rAtAOX1A IC50, membrane-bound protein, 300 μM NADH, MOPS buffer pH 7.5
# [2] = target: T2, recombinant Trypanosoma brucei AOX (rTAO) (Trypanosoma brucei brucei, UniProt Q26710); assay: biochemical; conditions: rTAO IC50, membrane-bound protein, 300 μM NADH, MOPS buffer pH 7.5
# T2 sequence (Q26710 25-329): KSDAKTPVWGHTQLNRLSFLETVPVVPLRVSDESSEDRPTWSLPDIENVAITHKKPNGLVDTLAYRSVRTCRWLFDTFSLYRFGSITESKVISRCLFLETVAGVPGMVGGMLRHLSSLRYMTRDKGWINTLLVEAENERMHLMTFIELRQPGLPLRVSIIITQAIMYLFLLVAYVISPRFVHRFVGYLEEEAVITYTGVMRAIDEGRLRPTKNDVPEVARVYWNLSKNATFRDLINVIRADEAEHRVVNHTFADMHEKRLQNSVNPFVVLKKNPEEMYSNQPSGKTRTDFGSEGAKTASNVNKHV
# [3] = target: T1, Arabidopsis thaliana AOX1A (rAtAOX1A); assay type: biochemical; conditions: for Fold change of oxygen consumption rate of rAtAOX1A vs control / Effect on oxygen consumption rate of rAtAOX1A (in words): 10 mM effector, membrane-bound protein, 1 mM NADH; for Fold change of oxygen consumption rate of rAtAOX1A vs control: 1 mM KCN (Figure 5C); for Effect on oxygen consumption rate of rAtAOX1A (in words): 1 mM KCN (Figure 5)
# [4] = target: T2, recombinant Trypanosoma brucei AOX (rTAO); assay type: biochemical
# [5] = target: T1, Arabidopsis thaliana AOX1A (rAtAOX1A); assay type: biochemical
# Protocol: (§1) Kinetic analysis of the purified rTAO and rAtAOX1A was performed spectrophotometrically using a Cary 4000 UV spectrophotometer (Varian, UK Ltd, Surrey UK) with the packaged software. All assays were performed in 65 mM MOPS buffer pH 7.5 with different concentrations of quinol-1 as the substrate, measuring the conversion of Q1H2 (ubiquinol-1) to Q1 (ubiquinone-1) at 278 nm (ε = 15,000 M^−1 cm^−1). Q1 was reduced to Q1H2 prior to experimentation via sonication with zinc powder under an inert atmosphere for ~10 min, with the resultant zinc then being removed via centrifugation at 2,000 g.
# [6] = target: T2, recombinant Trypanosoma brucei AOX (rTAO); assay: Quinol kinetics of purified rTAO, Q1H2 oxidation at 278 nm; assay type: biochemical; conditions: MOPS pH 7.5
# Protocol: as §1
# T1 sequence (Q39219 63-354): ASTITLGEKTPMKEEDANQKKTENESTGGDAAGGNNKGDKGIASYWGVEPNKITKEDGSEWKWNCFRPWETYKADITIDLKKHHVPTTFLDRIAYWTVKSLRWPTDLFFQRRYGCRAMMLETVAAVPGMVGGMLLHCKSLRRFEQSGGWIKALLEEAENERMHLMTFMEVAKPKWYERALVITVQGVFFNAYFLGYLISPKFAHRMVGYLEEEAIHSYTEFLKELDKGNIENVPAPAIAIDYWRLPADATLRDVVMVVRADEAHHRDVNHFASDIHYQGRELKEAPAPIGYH
smiles,measurement,setting,value
"C/C(=C\Cc1c(O)c(Cl)c(C)c(C=O)c1O)CC/C=C(\C)[C@@H]1CC(=O)C(C)(C)O1 [AF, ascofuranone]",IC50,[1],6.21 nM
"CCCCCCCCOC(=O)c1cc(O)c(O)c(O)c1 [OG, octylgallate]",IC50,[2],417 nM
same,IC50,[1],1580 nM
O=CC(=O)O [glyoxylate],Fold change of oxygen consumption rate of rAtAOX1A vs control,[3],more than 7 fold
"CC(/C=C/[C@@]1(C)[C@H](C)CCC(=O)[C@@H]1C)=C\Cc1c(O)c(Cl)c(C)c(C=O)c1O [AC, ascochlorin]",IC50,[2],3.8 nM and 3.7 nM
same,IC50,[1],14.7 nM
CC(=O)C(=O)O [pyruvate],Fold change of oxygen consumption rate of rAtAOX1A vs control,[3],more than 7 fold
same,Respiratory rate of rAtAOX1A with vs without pyruvate,"[3]; 10 mM pyruvate, membrane samples, 1.25 mM NADH (Figure 4)",~ 6 fold
same,Change of Km for O2 of rAtAOX1A,"[3]; 10 mM pyruvate, membrane-bound protein (Figure 4)",increased Km value for O2
same,Activation of oxygen consumption rate of rTAO (in words),"[4]; 10 mM effector, membrane-bound protein",but not that of rTAO
same,Change of Km for Q1H2 of rAtAOX1A,"[5]; 10 mM pyruvate during purification and in the assay, purified protein",remained unchanged
same,Change of Vmax of rAtAOX1A,"[5]; 10 mM pyruvate during purification and in the assay, purified protein, Q1H2 substrate",increased approximately five times
"CC(C)=CCC/C(C)=C/Cc1c(O)c(Cl)c(C)c(C=O)c1O [CB, colletochlorin B]",IC50,[1],2.82 nM and 2.8 nM
"Nc1ncnc2c1ncn2[C@@H]1O[C@H](COP(=O)(O)OP(=O)(O)O)[C@@H](O)[C@H]1O [ADP, adenosine diphosphate]",Fold change of oxygen consumption rate of rAtAOX1A vs control,[3],1.4 fold
"O=O [O2, oxygen]",Km,"[3]; membrane samples, 25°C, 1.25 mM NADH, without pyruvate, read-out: Km for O2, rAtAOX1A",2.41 µM
same,Km,"[4]; membrane samples, 25°C, 1.25 mM NADH, without pyruvate, read-out: Km for O2, rTAO",1.15 µM
"O=C(NO)c1ccccc1O [SHAM, salicylic hydroxamic acid]",IC50,[1],33000 nM
"COc1c(O)c(C)c(CC=C(C)C)c(O)c1OC [Q1H2, ubiquinol-1]",Km,[6],451 µM
same,Km,"[5]; purified rAtAOX1A, without pyruvate, MOPS pH 7.5, read-out: Km for Q1H2, rAtAOX1A",26 µM
O=C(O)CC(=O)C(=O)O [oxaloacetate],Effect on oxygen consumption rate of rAtAOX1A (in words),[3],dramatically promoted
O=C(O)CCC(=O)O [succinate],Effect on oxygen consumption rate of rAtAOX1A (in words),[3],dramatically promoted
CCC(=O)O [propanoic acid],Effect on oxygen consumption rate of rAtAOX1A (in words),[3],no stimulation
CC(=O)O [acetic acid],Effect on oxygen consumption rate of rAtAOX1A (in words),[3],no stimulation
"CC(C)=CCc1c(O)c(Cl)c(C)c(C=O)c1O [CD, colletochlorin D]",IC50,[2],3.73 nM and 3.8 nM
same,IC50,[1],5.76 nM
Nc1nc2c(ncn2[C@@H]2O[C@H](COP(=O)(O)OP(=O)(O)O)[C@@H](O)[C@H]2O)c(=O)[nH]1 [GDP],Fold change of oxygen consumption rate of rAtAOX1A vs control,[3],1.4 fold

# Reference: publication PMC8569227 (Frontiers in Plant Science, 2021)
